These results are taken from patent US7491821B2, “Inhibitors of P2X3” (Roche Palo Alto LLC, priority 2005, dated 2009).

Where a name gives a salt, the structure may show the parent alone.

As usually defined, the melting point is the temperature of the solid-liquid transition. Compound `CC(=O)N1CCN(C[C@@H](C)NC(=O)c2cc3c(-c4ccccc4)nn(C)c3s2)CC1` (as salt: salt) [compound 93, (R)-1-methyl-3-phenyl-1H-thieno[2,3-c]pyrazole-5-carboxylic acid [2-(4-acetyl-piperazin-1-yl)-1-methyl-ethyl]-amide] showed a melting point of 133.9 to 139.9 °C.
Next, `CC(=O)N1CCN(C[C@H](C)NC(=O)c2cc3c(-c4ccccc4)nn(C)c3s2)CC1` (as salt: salt) [compound 94, (S)-1-methyl-3-phenyl-1H-thieno[2,3-c]pyrazole-5-carboxylic acid [2-(4-acetyl-piperazin-1-yl)-1-methyl-ethyl]-amide]: 133.5 to 140.1 °C.
